Assay results as given in BindingDB's records for patent US20190276450 (Abbvie, 2019).

Key:
[1] = biological target: Non-receptor tyrosine-protein kinase TYK2 (Homo sapiens, UniProt P29597); assay: TYK2 (TYK2/JAK2 PSTAT4 T-BLAST) Alpha Screen Assay
Protocol: IL-12 is known to transduce its signal through IL-12 receptor via Jak2 and/or Tyk2. For that reason, the activity against Tyk2/Jak2 was measured by determining the inhibition of IL-12 induced phosphorylation of STAT4 in T-blast cells. […] See, e.g., Sohn et al., J. Immunology (2013) 2205-2216.

[2] = biological target: Tyrosine-protein kinase JAK1 (Homo sapiens, UniProt P23458); assay: JAK1 (PSTAT3 TF1) Alpha Screen Assay
Sequence of Tyrosine-protein kinase JAK1 (P23458 whole entry): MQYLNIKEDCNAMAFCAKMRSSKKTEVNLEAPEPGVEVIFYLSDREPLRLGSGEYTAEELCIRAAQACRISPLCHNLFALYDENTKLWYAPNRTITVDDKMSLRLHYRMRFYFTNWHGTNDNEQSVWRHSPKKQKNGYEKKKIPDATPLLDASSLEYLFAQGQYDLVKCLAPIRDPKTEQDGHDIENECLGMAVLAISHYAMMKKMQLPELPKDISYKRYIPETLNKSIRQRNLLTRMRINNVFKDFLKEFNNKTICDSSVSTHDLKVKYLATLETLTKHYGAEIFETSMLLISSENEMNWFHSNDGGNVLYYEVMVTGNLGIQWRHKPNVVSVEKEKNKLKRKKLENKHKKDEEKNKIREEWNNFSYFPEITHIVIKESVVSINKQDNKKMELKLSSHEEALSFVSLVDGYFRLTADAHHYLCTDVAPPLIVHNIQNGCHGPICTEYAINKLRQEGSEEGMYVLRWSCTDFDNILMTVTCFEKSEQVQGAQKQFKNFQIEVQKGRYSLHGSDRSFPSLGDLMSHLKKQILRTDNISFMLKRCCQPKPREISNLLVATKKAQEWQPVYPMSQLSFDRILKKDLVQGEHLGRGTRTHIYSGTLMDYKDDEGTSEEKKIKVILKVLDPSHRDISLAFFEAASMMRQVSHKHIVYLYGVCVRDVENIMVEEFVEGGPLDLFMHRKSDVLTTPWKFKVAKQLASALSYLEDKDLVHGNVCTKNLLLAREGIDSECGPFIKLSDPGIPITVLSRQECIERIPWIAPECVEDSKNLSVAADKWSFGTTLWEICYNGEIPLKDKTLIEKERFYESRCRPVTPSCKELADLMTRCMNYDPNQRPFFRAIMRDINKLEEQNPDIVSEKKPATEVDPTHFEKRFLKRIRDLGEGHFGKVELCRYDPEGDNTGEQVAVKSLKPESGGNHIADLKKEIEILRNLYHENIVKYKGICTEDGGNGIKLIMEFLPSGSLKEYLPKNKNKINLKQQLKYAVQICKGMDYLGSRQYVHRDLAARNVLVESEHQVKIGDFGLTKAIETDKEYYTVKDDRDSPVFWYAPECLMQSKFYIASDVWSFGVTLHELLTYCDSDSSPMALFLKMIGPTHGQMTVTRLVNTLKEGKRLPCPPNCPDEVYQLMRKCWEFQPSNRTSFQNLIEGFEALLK
Protocol: IL-6 is known to transduce its signal through IL-6 receptor via Jak1. Activity against Jak was therefore measured by determining inhibition of IL-6 induced phosphorylation of STAT3 in TF1 cells. From these tests, the EC50 (effective concentration for 50% maximal response) values were determined in 1 μM for the test compounds.

Sequence of Non-receptor tyrosine-protein kinase TYK2 (P29597 whole entry): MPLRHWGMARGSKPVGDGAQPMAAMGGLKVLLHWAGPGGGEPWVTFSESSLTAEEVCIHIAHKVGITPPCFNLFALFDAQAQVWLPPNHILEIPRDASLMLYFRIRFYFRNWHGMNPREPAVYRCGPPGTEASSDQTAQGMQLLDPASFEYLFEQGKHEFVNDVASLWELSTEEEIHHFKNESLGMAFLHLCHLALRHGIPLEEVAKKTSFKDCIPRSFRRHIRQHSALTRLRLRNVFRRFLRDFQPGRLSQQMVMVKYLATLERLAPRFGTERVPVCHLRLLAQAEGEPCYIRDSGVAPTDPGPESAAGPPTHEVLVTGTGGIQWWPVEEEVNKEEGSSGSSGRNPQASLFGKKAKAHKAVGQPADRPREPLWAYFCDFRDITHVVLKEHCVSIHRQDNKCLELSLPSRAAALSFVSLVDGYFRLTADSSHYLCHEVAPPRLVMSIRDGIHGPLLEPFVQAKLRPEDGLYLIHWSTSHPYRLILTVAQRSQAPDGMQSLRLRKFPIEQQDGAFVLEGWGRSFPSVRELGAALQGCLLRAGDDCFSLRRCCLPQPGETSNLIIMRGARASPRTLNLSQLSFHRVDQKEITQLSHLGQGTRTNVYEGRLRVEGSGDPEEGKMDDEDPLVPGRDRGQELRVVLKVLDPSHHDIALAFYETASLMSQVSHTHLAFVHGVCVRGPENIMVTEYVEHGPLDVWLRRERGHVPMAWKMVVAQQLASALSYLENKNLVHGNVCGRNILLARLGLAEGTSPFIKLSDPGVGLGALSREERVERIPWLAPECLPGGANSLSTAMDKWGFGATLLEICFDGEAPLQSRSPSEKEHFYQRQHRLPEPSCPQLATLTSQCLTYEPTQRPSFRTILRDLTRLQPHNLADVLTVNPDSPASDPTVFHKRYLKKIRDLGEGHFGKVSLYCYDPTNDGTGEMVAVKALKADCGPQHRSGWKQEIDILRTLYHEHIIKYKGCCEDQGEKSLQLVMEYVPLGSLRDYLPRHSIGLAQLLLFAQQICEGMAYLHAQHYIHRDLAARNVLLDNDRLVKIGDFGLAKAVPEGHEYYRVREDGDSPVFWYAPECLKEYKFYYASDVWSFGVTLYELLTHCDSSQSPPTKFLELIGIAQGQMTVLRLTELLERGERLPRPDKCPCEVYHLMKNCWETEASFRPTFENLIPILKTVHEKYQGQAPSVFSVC

| EC50 [1] [nM] | EC50 [2] [nM] | Structure (SMILES) |
| --- | --- | --- |
| 310 |  | COCc1cc(-c2c[nH]c3cnc(NC(C)=O)cc23)nc([C@]2(OC)CCOC2)c1 [US20190276450, Example 2-NH] |
| 353 |  | COc1cc(-c2cn(C3COC3)c3cnc(NC(C)=O)cc23)nc([C@@]2(OC)CCOC2)c1 [US20190276450, Example 4.4] |
| 198 |  | CO[C@@]1(c2cccc(-c3cn(C4(C)COC4)c4cnc(NC(N)=O)cc34)n2)CCOC1 [US20190276450, Example 19] |
| 1310 |  | CC(=O)Nc1cc2c(-c3cccc([C@@]4(CO)CCOC4)n3)cn(C)c2cn1 [US20190276450, Example 21a] |
| 96 | 18000 | CC[C@@]1(c2cccc(-c3cn(C)c4cnc(NC(C)=O)cc34)n2)CCOC1 [US20190276450, Example 2.3] |
| 496 |  | CO[C@]1(c2cc(O[C@H]3C[C@H](O)C3)cc(-c3cn(C)c4cnc(NC(C)=O)cc34)n2)CCOC1 [US20190276450, Example 11a] |
| 561 |  | COc1cc(-c2cn([C@@H]3CCOC3)c3cnc(NC(C)=O)cc23)nc([C@@]2(OC)CCOC2)c1 [US20190276450, Example 5.3] |
| 2360 |  | CO[C@]1(c2cc(C#N)cc(-c3cn([C@H]4CC4(F)F)c4cnc(NC(C)=O)cc34)n2)CCOC1 [US20190276450, Example 2a.4] |
| 268 |  | CO[C@@]1(c2cc(C#N)cc(-c3cn(C)c4cnc(NC(C)=O)cc34)n2)CCOC1 [US20190276450, Example 2.6] |
| 185 | 15000 | COc1cc(-c2cn(C)c3cnc(NC(N)=O)cc23)nc([C@@]2(OC)CCOC2)c1 [US20190276450, Example 12.7] |
| 616 |  | CO[C@]1(c2cc(C(F)F)cc(-c3cn(C4COC4)c4cnc(NC(C)=O)cc34)n2)CCOC1 [US20190276450, Example 4.2] |
| 1590 |  | CO[C@]1(c2cccc(-c3cn(C)c4cnc(NC(C)=O)cc34)n2)CCOC1 [US20190276450, Example 16a] |
| 124 |  | CO[C@@]1(c2cc(O[C@H]3C[C@@H](O)C3)cc(-c3cn(C)c4cnc(NC(C)=O)cc34)n2)CCOC1 [US20190276450, Example 11.2] |
| 563 | 11100 | Cn1cc(-c2cccc(C3(O)COC3)n2)c2cc(NC(N)=O)ncc21 [US20190276450, Example 14] |
| 388 |  | CC[C@]1(c2cccc(-c3cn(C)c4cnc(NC(N)=O)cc34)n2)CCOC1 [US20190276450, Example 3.3] |
| 368 |  | CO[C@@]1(c2cncc(-c3cn(C)c4cnc(NC(C)=O)cc34)n2)CCOC1 [US20190276450, Example 2.10] |
| 8 |  | CO[C@@]1(c2cc(C(F)F)cc(-c3cn([C@H]4C[C@@H](C#N)C4)c4cnc(NC(C)=O)cc34)n2)CCOC1 [US20190276450, Example 17.3] |
| 111 | > 100000 | COc1cc(-c2cn(C3COC3)c3cnc(NC(C)=O)cc23)nc([C@]2(OC)CCOC2)c1 [US20190276450, Example 5] |
| 1590 |  | CO[C@@]1(c2cc(C#N)cc(-c3cn([C@H]4CC4(F)F)c4cnc(NC(C)=O)cc34)n2)CCOC1 [US20190276450, Example 2a.5] |
| 56 | 68000 | CO[C@@]1(c2cc(C(F)F)cc(-c3cn([C@H]4CCOC4)c4cnc(NC(N)=O)cc34)n2)CCOC1 [US20190276450, Example 12b.3] |

| EC50 [1] [nM] | EC50 [2] [nM] | Structure (SMILES) |
| --- | --- | --- |
| 477 |  | CO[C@@]1(c2cccc(-c3cn([C@H]4C[C@@H](C#N)C4)c4cnc(NC(C)=O)cc34)n2)CCOC1 [US20190276450, Example 17a] |
| 319 |  | COCc1cc(-c2cn(C)c3cnc(NC(N)=O)cc23)nc([C@@]2(OC)CCOC2)c1 [US20190276450, Example 12.4] |
| 1520 |  | CO[C@@]1(c2cccc(-c3c[nH]c4cnc(NC(C)=O)cc34)n2)CCOC1 [US20190276450, Example 17-NH] |
| 156 | > 100000 | COc1cc(-c2cn([C@@H]3CCOC3)c3cnc(NC(C)=O)cc23)nc([C@]2(OC)CCOC2)c1 [US20190276450, Example 5.2] |
| 578 |  | CO[C@@]1(c2cc(C#N)cc(-c3cn([C@H]4CC4(F)F)c4cnc(NC(N)=O)cc34)n2)CCOC1 [US20190276450, Example 12a.2] |
| 5 | 32000 | CO[C@@]1(c2cc(C)cc(-c3cn([C@H]4C[C@@H](C#N)C4)c4cnc(NC(C)=O)cc34)n2)CCOC1 [US20190276450, Example 17.5] |
| 2220 |  | CC[C@]1(c2cccc(-c3cn(C)c4cnc(NC(C)=O)cc34)n2)CCOC1 [US20190276450, Example 2.3a] |
| 352 |  | CO[C@@]1(c2cc(OCC#N)cc(-c3cn(C)c4cnc(NC(C)=O)cc34)n2)CCOC1 [US20190276450, Example 6.3] |
| 22 | 20000 | CO[C@@]1(c2cc(C(F)F)cc(-c3cn(C)c4cnc(NC(N)=O)cc34)n2)CCOC1 [US20190276450, Example 12.5] |
| 3100 |  | COc1cc(-c2cn(C)c3cnc(NC(C)=O)cc23)nc([C@@]2(CO)CCOC2)c1 [US20190276450, Example 22.7] |
| 330 |  | COCc1cc(-c2nn(C)c3cnc(NC(C)=O)cc23)nc([C@]2(OC)CCOC2)c1 [US20190276450, Example 23] |
| 906 |  | COc1cc(-c2cn(C)c3cnc(NC(C)=O)cc23)nc([C@@]2(OC)CCOC2)c1 [US20190276450, Example 20a] |
| 45 | 40000 | CO[C@@]1(c2cc(C(F)F)cc(-c3cn(C4COC4)c4cnc(NC(N)=O)cc34)n2)CCOC1 [US20190276450, Example 12b.4] |
| 310 |  | CO[C@@]1(c2cccc(-c3cn(C)c4cnc(NC(C)=O)cc34)n2)CCOC1 [US20190276450, Example 16] |
| 103 | 5200 | CO[C@]1(c2cc(OCC3COC3)cc(-c3cn(C)c4cnc(NC(C)=O)cc34)n2)CCOC1 [US20190276450, Example 6.2] |
| 3140 |  | COC1(c2cccc(-c3c[nH]c4cnc(NC(C)=O)cc34)n2)CCOC1 (stereo unspecified) [US20190276450, Example 16-NH] |
| 1320 |  | COCCOc1cc(-c2cn(C)c3cnc(NC(C)=O)cc23)nc([C@@]2(CO)CCOC2)c1 [US20190276450, Example 22.9] |
| 494 |  | CO[C@@]1(c2cccc(-c3cn(C4(C)COC4)c4cnc(NC(C)=O)cc34)n2)CCOC1 [US20190276450, Example 18] |
| 673 |  | COc1cc(-c2cn(C)c3cnc(NC(C)=O)cc23)nc(C2(O)COC2)c1 [US20190276450, Example 14.2] |
| 254 |  | CO[C@]1(c2cc(C(F)F)cc(-c3cn(C)c4cnc(NC(C)=O)cc34)n2)CCOC1 [US20190276450, Example 2.7] |

| EC50 [1] [nM] | EC50 [2] [nM] | Structure (SMILES) |
| --- | --- | --- |
| 749 |  | CO[C@]1(c2cc(C#N)cc(-c3cn([C@@H]4CC4(F)F)c4cnc(NC(C)=O)cc34)n2)CCOC1 [US20190276450, Example 2a.2] |
| 288 |  | CNC(=O)Nc1cc2c(-c3cccc([C@]4(OC)CCOC4)n3)cn(C)c2cn1 [US20190276450, Example 1a.2] |
| 694 |  | CO[C@]1(c2cc(C#N)cc(-c3cn(C)c4cnc(NC(C)=O)cc34)n2)CCOC1 [US20190276450, Example 2.5] |
| 551 |  | CO[C@]1(c2cc(C#N)cc(-c3cn(C)c4cnc(NC(N)=O)cc34)n2)CCOC1 [US20190276450, Example 12.2] |
| 492 |  | Cn1cc(-c2cccc(C3COC3)n2)c2cc(NC(N)=O)ncc21 [US20190276450, Example 13] |
| 15 | 40000 | CO[C@@]1(c2cc(C(F)F)cc(-c3cn([C@@H]4CCOC4)c4cnc(NC(N)=O)cc34)n2)CCOC1 [US20190276450, Example 12b.2] |
| 716 |  | CO[C@]1(c2cncc(-c3cn(C)c4cnc(NC(C)=O)cc34)n2)CCOC1 [US20190276450, Example 2.9] |
| 2030 |  | CO[C@@]1(c2cccc(-c3cn([C@H]4CC4(F)F)c4cnc(NC(N)=O)cc34)n2)CCOC1 [US20190276450, Example 1.3] |
| 127 | 20000 | CO[C@@]1(c2cc(C)cc(-c3cn([C@H]4C[C@H](C#N)C4)c4cnc(NC(C)=O)cc34)n2)CCOC1 [US20190276450, Example 17.4] |
| 537 |  | CO[C@@]1(c2cccc(-c3cn(C4(F)COC4)c4cnc(NC(C)=O)cc34)n2)CCOC1 [US20190276450, Example 18a] |
| 66 | > 100000 | CO[C@@]1(c2cc(C#N)cc(-c3cn([C@@H]4CC4(F)F)c4cnc(NC(N)=O)cc34)n2)CCOC1 [US20190276450, Example 12a.3] |
| 699 |  | COCc1cc(-c2cn(C)c3cnc(NC(C)=O)cc23)nc([C@@]2(OC)CCOC2)c1 [US20190276450, Example 2.4] |
| 468 |  | CO[C@]1(c2cccc(-c3cn(C)c4cnc(NC(N)=O)cc34)n2)CCOC1 [US20190276450, Example 1a] |
| 1840 |  | NC(=O)Nc1cc2c(-c3cccc(C4(O)COC4)n3)cn([C@H]3CCOC3)c2cn1 [US20190276450, Example 15.2] |
| 339 |  | CC(=O)Nc1cc2c(-c3cc(OC(C)C)cc(C4(O)COC4)n3)cn(C)c2cn1 [US20190276450, Example 14.3] |
| 137 | 45000 | COc1cc(-c2cn(C)c3cnc(NC(C)=O)cc23)nc([C@]2(OC)CCOC2)c1 [US20190276450, Example 20] |
| 90 | 22000 | CO[C@@]1(c2cc(OC3COC3)cc(-c3cn(C)c4cnc(NC(C)=O)cc34)n2)CCOC1 [US20190276450, Example 8] |
| 445 | 4460 | CO[C@]1(c2cc(C)cc(-c3cn(C)c4cnc(NC(N)=O)cc34)n2)CCOC1 [US20190276450, Example 1b.3] |
| 908 | 73000 | NC(=O)Nc1cc2c(-c3cccc(C4(O)COC4)n3)cn([C@@H]3CCOC3)c2cn1 [US20190276450, Example 15] |
